For the test, the system named is lactating Holstein cows in sub-clinical ketosis. The test can be described thus: Change of daily milk production after a single intravenous injection in lactating Holstein cows with sub-clinical ketosis. The class given is in vivo. The text has this:
Ten lactating Holstein cows in the immediate post-partum period of which milk production was 10-15% decreased in comparison with that of one week before the beginning of test due to sub-clinical ketosis were used. All cows were supplied with a complete feed for lactating cows composed of corn silage and concentrate containing grains, oil meals, animal proteins and vitamins/minerals. On the first day in the test, a solution containing 29 g of L-glutamine dissolved in 1 liter of distilled water for injection was injected into the cows through the cervical vein. The cows were then milked twice a day for one month, and the milk amount was measured. Ten lactating Holstein cows in sub-clinical ketosis were selected as negative controls according to the same criterion as in Example. On the first day in the test, 1 liter of saline was injected through the cervical vein as the negative control. On the other hand, nine lactating Holstein cows selected according to the same criterion as described above were used. On the first day in the test, 1 liter of a 25% dextrose solution was injected through the cervical vein as the positive control. Both the negative and positive controls were then supplied with the same complete feed as used in Example. The cows were then milked twice a day for one month, and the milk amount was measured. […] The X-axis indicates days after administration, and the Y-axis indicates the increment of the milk amount from that on the first day of the test. […] The increase of the milk amount was about 12 kg per day at maximum. […] Thus, the present invention can provide a novel method which is inexpensive and safe for preventing decrease of milk amount in mammals.

With `NC(=O)CC[C@H](N)C(=O)O` [glutamine, L-glutamine], the “milk amount increase on the average, from that on the first day of the test” value (single injection through the cervical vein on the first day (29 g L-glutamine in 1 liter, or 1 liter of 25% dextrose solution), milked twice a day for one month) amounted to 7.6 kg per day. For the same compound, the “increase of the milk amount at maximum, from that on the first day of the test” value (single injection through the cervical vein on the first day (29 g L-glutamine in 1 liter, or 1 liter of 25% dextrose solution), milked twice a day for one month, FIG. 1) was “about 12 kg per day”. For the same compound, the “course of the change of the milk amount after administration” value (single injection through the cervical vein on the first day, followed for one month, FIG. 1) was “increased immediately after administration, and this tendency lasted even one month after administration”.
